Where “and” joins values, the source holds several entries; their conditions need not be identical. Equal entries are not always repeated.
Columns and labels:
Type in all cases: biochemical
[1] = system: UGT enzymes of human liver microsomes; assay: Kinetic and Ki studies of inhibitors of 7-HFC glucuronidation in human liver microsomes; details: for Inhibition Type: highest inhibitor concentration only; for Ki: highest inhibitor concentration only (tannic acid 0, 25; octyl gallate and gallocatechin gallate 0, 200 μM), read-out: Ki (apparent), 7-HFC glucuronidation
[2] = system: UGT enzymes of human liver microsomes; assay: Inhibition of raloxifene glucuronidation (G1, G2) in human liver microsomes; details: for % of control metabolism (SD, n = 3), raloxifene glucuronide G1 / % of control metabolism (SD, n = 3), raloxifene glucuronide G2: human liver microsomes 250 μg/ml, 15 min
Text: Compounds were eluted using a binary solvent gradient system. […] Solvent B was methanol. […] Detection was at 280 nm.

[3] = system: UGT enzymes of human liver microsomes; assay: Inhibition of 2ME2 glucuronidation (MG1, MG2) in human liver microsomes; details: liver 062101, 2ME2 50 μM
Text: Compounds were eluted using a binary solvent gradient system where solvent A was dilute phosphoric acid (pH 3) and solvent B was 80:20 acetonitrile-methanol. […] Detection was at 280 nm.

[4] = system: UGT enzymes of human liver microsomes; assay: Inhibition of 7-HFC glucuronidation in human liver microsomes; details: 7-HFC 50 μM, human liver microsomes 100 μg/ml, 15 min
[5] = system: UGT enzymes of human liver microsomes; assay: Inhibition of labetalol glucuronidation (LG1, LG2) in human liver microsomes; details: labetalol 50 μM
[6] = inhibitor 10 μM, raloxifene 50 μM
[7] = inhibitor 25 μM, raloxifene 50 μM
[8] = inhibitor 50 μM, raloxifene 50 μM
[9] = inhibitor 100 μM, raloxifene 50 μM
[10] = inhibitor 500 μM, raloxifene 50 μM
[11] = liver lot 032101, inhibitor 50 μM
[12] = liver lot 062101, inhibitor 50 μM
[13] = liver lot 083000, inhibitor 50 μM
[14] = raloxifene 50 μM, inhibitor 10 μM
[15] = raloxifene 50 μM, inhibitor 25 μM
[16] = raloxifene 50 μM, inhibitor 50 μM
[17] = raloxifene 50 μM, inhibitor 100 μM
[18] = liver lot 032101, inhibitor 10 μM
[19] = liver lot 062101, inhibitor 10 μM
[20] = liver lot 083000, inhibitor 10 μM

Inhibition Type [1]	Ki [1]	% of control metabolism, raloxifene G1 [2, 14]	% of control metabolism, raloxifene G2 [2, 14]	% of control metabolism, raloxifene G1 [2, 15]	% of control metabolism, raloxifene G2 [2, 15]	% of control metabolism, raloxifene G1 [2, 16]	% of control metabolism, raloxifene G2 [2, 16]	% of control metabolism, raloxifene G1 [2, 17]	% of control metabolism, raloxifene G2 [2, 17]	Compound	% of control metabolism (SD, n = 3), raloxifene glucuronide G1 [2, 6]	% of control metabolism (SD, n = 3), raloxifene glucuronide G1 [2, 7]	% of control metabolism (SD, n = 3), raloxifene glucuronide G1 [2, 8]	% of control metabolism (SD, n = 3), raloxifene glucuronide G1 [2, 9]	% of control metabolism (SD, n = 3), raloxifene glucuronide G2 [2, 6]	% of control metabolism (SD, n = 3), raloxifene glucuronide G2 [2, 7]	% of control metabolism (SD, n = 3), raloxifene glucuronide G2 [2, 8]	% of control metabolism (SD, n = 3), raloxifene glucuronide G2 [2, 9]	% of control metabolism, raloxifene G1 [2, 11]	% of control metabolism, raloxifene G2 [2, 11]	also measured
strictly non-competitive	16 ± 2 µM	68 (3) %	75 (8) %	48 (6) %	59 (5) %	37 (2) %	46 (3) %	31 (3) %	52 (7) %	CCCCCCCCOC(=O)c1cc(O)c(O)c(O)c1 [Octyl gallate]	68 (3) %	48 (6) %	37 (2) %	31 (3) %	75 (8) %	59 (5) %	46 (3) %	52 (7) %	45 (1) %	59 (3) %	% of control metabolism, raloxifene G1 [2, 12]: 55 (5) %; % of control metabolism, raloxifene G2 [2, 12]: 45 (6) %; % of control metabolism, raloxifene G1 [2, 13]: 37 (2) %; % of control metabolism, raloxifene G2 [2, 13]: 46 (3) %
Non-competitive	5.4 ± 0.4 µM	27 (1) %	30 (1) %	7 (1) %	12 (2) %	0 (0), 0 (0) %	0 (0), 0 (0) %	0 (0), 0 (0) %	0 (0), 0 (0) %	O=C(OC[C@H]1O[C@@H](OC(=O)c2cc(O)c(O)c(OC(=O)c3cc(O)c(O)c(O)c3)c2)[C@H](OC(=O)c2cc(O)c(O)c(OC(=O)c3cc(O)c(O)c(O)c3)c2)[C@@H](OC(=O)c2cc(O)c(O)c(OC(=O)c3cc(O)c(O)c(O)c3)c2)[C@@H]1OC(=O)c1cc(O)c(O)c(OC(=O)c2cc(O)c(O)c(O)c2)c1)c1cc(O)c(O)c(OC(=O)c2cc(O)c(O)c(O)c2)c1 [Tannic acid]											% of control metabolism (SD, n = 3), 7-HFC glucuronidation ([4]; inhibitor 5 μM): 72 (1) %; % of control metabolism (SD, n = 3), 7-HFC glucuronidation ([4]; inhibitor 10 μM): 47 (2), % and 50 (1) %; % of control metabolism, raloxifene G1 [2, 18]: 51 (4) %; % of control metabolism, raloxifene G2 [2, 18]: 59 (3) %; % of control metabolism, raloxifene G1 [2, 19]: 61 (4) %; % of control metabolism, raloxifene G2 [2, 19]: 54 (4) %; % of control metabolism, raloxifene G1 [2, 20]: 27 (1) %; % of control metabolism, raloxifene G2 [2, 20]: 30 (1) %; residual metabolism (percentage of control), labetalol LG1 ([5]; inhibitor 10 μM): 91 (2) %; residual metabolism (percentage of control), labetalol LG2 ([5]; inhibitor 10 μM): 88 (4) %; residual metabolism (percentage of control), labetalol LG1 ([5]; inhibitor 25 μM): 56 (2) %; residual metabolism (percentage of control), labetalol LG2 ([5]; inhibitor 25 μM): 51 (6) %; residual metabolism (% of control), 2ME2 MG1 ([3]; inhibitor 2 μM): 62 (2) %; residual metabolism (% of control), 2ME2 MG2 ([3]; inhibitor 2 μM): 105 (3) %; residual metabolism (% of control), 2ME2 MG1 ([3]; inhibitor 5 μM): 39 (0) %; residual metabolism (% of control), 2ME2 MG2 ([3]; inhibitor 5 μM): 91 (5) %; residual metabolism (% of control), 2ME2 MG1 ([3]; inhibitor 10 μM): 24 (1) %; residual metabolism (% of control), 2ME2 MG2 ([3]; inhibitor 10 μM): 69 (6) %

Compound	Inhibition Type [1]	Ki [1]	% of control metabolism, raloxifene G1 [2, 14]	% of control metabolism, raloxifene G2 [2, 14]	% of control metabolism, raloxifene G1 [2, 15]	% of control metabolism, raloxifene G2 [2, 15]	% of control metabolism, raloxifene G1 [2, 16]	% of control metabolism, raloxifene G2 [2, 16]	% of control metabolism, raloxifene G1 [2, 17]	% of control metabolism, raloxifene G2 [2, 17]	% of control metabolism (SD, n = 3), raloxifene glucuronide G1 [2, 6]	% of control metabolism (SD, n = 3), raloxifene glucuronide G1 [2, 7]	% of control metabolism (SD, n = 3), raloxifene glucuronide G1 [2, 8]	% of control metabolism (SD, n = 3), raloxifene glucuronide G1 [2, 9]	% of control metabolism (SD, n = 3), raloxifene glucuronide G2 [2, 6]	% of control metabolism (SD, n = 3), raloxifene glucuronide G2 [2, 7]	% of control metabolism (SD, n = 3), raloxifene glucuronide G2 [2, 8]	% of control metabolism (SD, n = 3), raloxifene glucuronide G2 [2, 9]	% of control metabolism, raloxifene G1 [2, 11]	% of control metabolism, raloxifene G2 [2, 11]	also measured
O=C(O[C@@H]1Cc2c(O)cc(O)cc2O[C@H]1c1cc(O)c(O)c(O)c1)c1cc(O)c(O)c(O)c1 [Gallocatechin gallate]	Non-competitive	40 ± 3 µM	80 (6) %	83 (4) %	62 (7) %	64 (4) %	45 (2) %	47 (2) %	20 (1) %	29 (1) %	80 (6) %	62 (7) %	45 (2) %	20 (1) %	83 (4) %	64 (4) %	47 (2) %	29 (1) %	29 (1) %	28 (0) %	Inhibition Type ([1]; listed as gallocatechin gallate): strictly non-competitive; % of control metabolism (SD, n = 3), raloxifene glucuronide G1 [2, 10]: 0 (0) %; % of control metabolism (SD, n = 3), raloxifene glucuronide G2 [2, 10]: 0 (0) %; % of control metabolism, raloxifene G1 [2, 12]: 40 (3) %; % of control metabolism, raloxifene G2 [2, 12]: 22 (1) %; % of control metabolism, raloxifene G1 [2, 13]: 45 (2) %; % of control metabolism, raloxifene G2 [2, 13]: 47 (2) %; residual metabolism (% of control), 2ME2 MG1 ([3]; inhibitor 10 μM): 56 (1) %; residual metabolism (% of control), 2ME2 MG2 ([3]; inhibitor 10 μM): 84 (1) %

— patent publication US20030215462A1, “Use of UGT inhibitors to increase bioavailability” (priority 2001, published 2003)
